Experimental findings from patent US20040106626A1, “6-Membered unsaturated heterocyclic compounds useful for selective inhibition of the coagulation cascade” (Pharmacia Corporation, priority 2001, published 2004) are described below.

Data set [1] has as its system thrombus formation in vena cava. Briefly: Deep vein thrombosis model, thrombus accumulation on threads in vena cava. It is filed as in vivo, Macaca fascicularis. Particulars: non-human primate, n=4. The source says:
This model measures the accumulation of thrombus on a set of four threads (4-0 surgical silk) that are introduced into the vena cava of a non-human primate. The device used to introduce the threads consists of a copper wire (12 cm) contained in a sheath of polyethylene tubing (9 cm). Four 4-0 surgical silk threads (3 cm) are tied to the end of the wire and retracted into the tubing. When the device is inserted into the iliac vein, the wire is advanced introducing the threads into the vena cava between the bifurcation and the left renal vein.
(§1) Non-human primates (Macaca fascicularis) are lightly anesthetized with ketamine to facilitate placement of an endotracheal tube and a femoral venous catheter. Animals are put into and maintained in a deep plane of anesthesia using pentobarbital via the femoral vein cannula. A jugular vein is cannulated for infusion of drug and a carotid artery is cannulated for blood sampling and for monitoring hemodynamic parameters.
The abdominal cavity is opened and an ultrasonic flow probe placed on the left iliac vein. The right iliac vein (RIV) is dissected free of surrounding tissue for a length of approximately 4 cm. The RIV is ligated approximately 4 cm distal to the bifurcation of the abdominal vena cava and a second ligature is placed, loosely, approximately 2 cm distal to the bifurcation. An incision is made in the RIV between the two ligatures, the device described above introduced into the iliac vein and the threads advanced into the vena cava. Every study consists of three thrombus measurements:
Control—Saline infusion. Threads are introduced and left in for 30 min, removed and thrombus weighed.
Treatment 1—Aspirin administered as a bolus or compound as an infusion. For aspirin treatment, aspirin is administered as a bolus and a 30 min equilibration period is allowed to assure the platelets are inhibited. For compound treatment, infusion is started and allowed to run for 30 min to reach steady-state blood levels of compound. Threads are introduced and left in for 30 min, removed and thrombus weighed;
Treatment 2—Compound administered as an infusion. Compound infusion is started and allowed to run for 30 min to reach steady-state blood levels of compound. Threads are introduced and left in for 30 min, removed and thrombus weighed.
During the 30 min equilibration/infusion periods of Treatment 1 and Treatment 2, a piece of tubing containing a copper wire, but no threads, is introduced into the vein to maintain the integrity of the vessel. After the threads have been in the vessel for 30 min, the entire device is removed from the vessel and the threads are cut from the device and weighed. The weight of the threads prior to insertion in the vessel is subtracted to get the net thrombus weight

The next data set has as its system prothrombin time. Briefly: Prothrombin time in deep vein thrombosis model. The settings on record: non-human primate, n=4. It is filed as in vivo, Macaca fascicularis. The procedure: The prothrombin time (PT) assay is a clotting assay that is used to determine deficiencies of clotting factor activity in the extrinsic pathway. The assay measures time to clotting after the addition of thromboplastin (human tissue factor). Normal human pooled plasma is incubated with 100 uM compound or saline in a coagulation machine. Thromboplastin is added and time to clotting is measured. Compounds with greater than 3×normal PT of 11.0 seconds are further analyzed by concentration response to determine at what concentration the prothrombin time is prolonged by 2×normal.
as §1
The table below depicts the effects of Aspirin coadministered with a compound of the present invention (compounds 54 and 55 are salts of the compound tested) on thrombus formation, prothrombin time and bleeding time in a non-human primate model of deep vein thrombosis.

A further data set has as its system bleeding time. Briefly: Bleeding time in deep vein thrombosis model. It is filed as in vivo, Macaca fascicularis. Particulars: non-human primate, n=4. The procedure:
To measure bleeding time, a blood pressure cuff is placed on the upper arm and inflated to 40 mm Hg. Two uniform cuts are made in the volar surface of the forearm, the blood from the cuts is collected onto a gauze pad every 30 sec. The time from when the cuts are made until the bleeding stops is considered the bleeding time. All gauze used to collect blood is placed in Drabkin's solution and the amount of blood lost from the bleeding time site is calculated based on the amount of hemoglobin measured in the Drabkin's solution.

Data set [2] addresses T1, recombinant soluble tissue factor and recombinant human factor VIIa (TF-VIIa) (Homo sapiens, UniProt P08709).
T1 construct: conversion of coagulation factor VII to VIIa by factor Xa; purchased American Diagnostica, Greenwich CT; host or cells: soluble TF made in house in E. coli
Briefly: TF-VIIa assay (chromogenic substrate hydrolysis). The settings on record: reported only as less than or greater than 0.1 uM. The data set is classed as biochemical. The procedure, abridged:
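100 nM soluble tissue factor and 2 nM recombinant human factor VIIa added to 0.4 mM N-methylsulfonyl-D-phe-gly-arg-p-nitroaniline with inhibitor in 50 mM Tris-HCl pH 8.0, 5 mM CaCl2, 100 mM NaCl, 0.1% BSA. Percent inhibition from OD405 versus control.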

In a further data set the target is T2, Human factor Xa (Homo sapiens, UniProt P00742).
T2 construct: purchased Enzyme Research Laboratories, South Bend Ind
T2 sequence (P00742 235-488 limits assumed): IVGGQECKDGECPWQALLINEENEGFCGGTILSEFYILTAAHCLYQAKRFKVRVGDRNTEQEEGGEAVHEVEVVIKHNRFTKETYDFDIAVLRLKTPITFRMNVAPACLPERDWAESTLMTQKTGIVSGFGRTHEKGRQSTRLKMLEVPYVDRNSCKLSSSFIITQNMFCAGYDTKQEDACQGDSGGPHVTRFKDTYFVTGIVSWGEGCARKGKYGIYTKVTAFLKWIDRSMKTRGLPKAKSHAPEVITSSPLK
T2 sequence (P00742 41-179 limits assumed): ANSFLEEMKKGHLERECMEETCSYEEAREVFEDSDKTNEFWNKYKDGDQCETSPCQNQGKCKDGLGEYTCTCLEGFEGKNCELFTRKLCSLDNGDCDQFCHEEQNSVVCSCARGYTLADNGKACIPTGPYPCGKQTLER
Briefly: Xa assay (chromogenic substrate S-2765). It is filed as biochemical. Particulars: reported only as less than or greater than 30 uM; read-out: Factor Xa (II) IC50. The procedure, abridged: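 Human factor Xa (0.3 nM) was incubated with inhibitor and 0.15 mM S-2765 in 50 mM Tris-HCl pH 8.0, 100 mM NaCl, 0.1% BSA. After 60 min at RT, p-nitroaniline release was read at 405 nm after background subtraction. Percent inhibition was calculated against uninhibited control.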

In the next data set the target is T3, Human thrombin (Homo sapiens, UniProt P00734).
T3 construct: converts prothrombin (II) to thrombin (IIa); purchased Calbiochem, La Jolla, Calif
Briefly: Thrombin assay (chromogenic substrate). Particulars: reported only as less than or greater than 30 uM; read-out: Thrombin (II) IC50. It is filed as biochemical. The procedure, abridged: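 Chromogenic assay with p-nitroaniline-releasing substrate; thrombin activity read as OD405 nm. Percent inhibition calculated from experimental versus control absorbance.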

The test system of data set [3] is Normal human pooled plasma. Briefly: Prothrombin time (PT) clotting assay. The data set is classed as biochemical. Particulars: concentration at which prothrombin time is prolonged by 2x normal, reported as less than or greater than 50 uM. The method, boiled down: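 Normal human pooled plasma incubated with 100 uM compound or saline, then thromboplastin (human tissue factor) added and clotting time recorded in a coagulation machine. Compounds exceeding 3× normal PT (11.0 s) are titrated to find the concentration doubling PT.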

The mark [4] stands for this setting: Aspirin bolus followed by compound infusion 50 μg/kg/min (coadministered).
The mark [5] stands for this setting: Aspirin bolus followed by compound infusion 100 μg/kg/min (coadministered).
The mark [6] stands for this setting: compound infusion 100 μg/kg/min, no aspirin.
Setting [7] is: compound infusion 200 μg/kg/min, no aspirin.

Several values for one entry are separate records, joined by “and”; a condition that tells them apart may be missing. Equal values may be shown once. A value given as a limit tells only on which side of the number the result lay.

T1 sequence (P08709 213-466 limits assumed): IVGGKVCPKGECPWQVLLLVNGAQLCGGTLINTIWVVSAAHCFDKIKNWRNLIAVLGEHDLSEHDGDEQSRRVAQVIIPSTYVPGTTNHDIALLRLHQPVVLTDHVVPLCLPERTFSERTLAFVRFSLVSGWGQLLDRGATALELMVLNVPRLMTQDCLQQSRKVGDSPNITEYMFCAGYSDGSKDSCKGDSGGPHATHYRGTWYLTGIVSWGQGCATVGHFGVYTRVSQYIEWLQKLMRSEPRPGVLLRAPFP
T1 sequence (P08709 61-212 limits assumed): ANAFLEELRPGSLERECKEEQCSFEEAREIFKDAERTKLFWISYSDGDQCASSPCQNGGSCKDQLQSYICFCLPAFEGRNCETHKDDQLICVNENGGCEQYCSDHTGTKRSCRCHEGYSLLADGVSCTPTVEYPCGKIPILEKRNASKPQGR
T1 sequence (P13726 33-251 partner limits assumed): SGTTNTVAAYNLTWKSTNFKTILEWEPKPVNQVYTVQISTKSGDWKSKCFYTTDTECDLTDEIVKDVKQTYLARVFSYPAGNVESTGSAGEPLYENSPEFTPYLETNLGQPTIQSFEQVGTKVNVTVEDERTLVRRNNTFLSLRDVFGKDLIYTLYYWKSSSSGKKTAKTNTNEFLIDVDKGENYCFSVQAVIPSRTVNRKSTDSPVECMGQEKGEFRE

Take `CC(C)Nc1ncc(-c2cc(N)cc(O)c2)n(CC(=O)NCc2ccc(C(=N)N)cc2)c1=O` [Compounds 54 and 55]: the “Net Thrombus Wt” value came out at 19.5 mg in data set [1] (setting [4]), 3.6 mg in data set [1] (setting [5]), 15.3 mg in data set [1] (setting [6]) and 5.1 mg in data set [1] (setting [7]). Further, the “Thrombus Wt: % Δ from Control” value in data set [1] (setting [4]) is reported as −34%; in data set [1] (setting [5]), −89%; in data set [1] (setting [6]) it was −56%; in data set [1] (setting [7]), −85%. The “Prothrombin Time” value in the data set on prothrombin time (setting [4]) was determined as 17.3 s; in the data set on prothrombin time (setting [5]), 22.4 s; in the data set with prothrombin time (setting [6]), 22.7 s; with prothrombin time (setting [7]), 46.0 s. The “Bleeding Time” value in the data set with bleeding time (setting [4]) worked out at 4.1 min; with bleeding time (setting [5]) it was 4.7 min; with bleeding time (setting [7]) it was 3.9 min.
As for `CC(=O)Oc1ccccc1C(=O)O` [Aspirin, reference compound], in data set [1] (Aspirin bolus alone), the “Net Thrombus Wt” value is 30.9 mg and 26.7 mg; the “Thrombus Wt: % Δ from Control” value was −12% and −4%. Moreover, the “Prothrombin Time” value in the data set on prothrombin time (Aspirin bolus alone) was 11.8 s and 11.5 s. The “Bleeding Time” value with bleeding time (Aspirin bolus alone) was 4.6 min and 4.3 min.
`CC(C)Nc1ncc(-c2cc(N)cc(NS(=O)(=O)c3ccc4ccccc4c3)c2)n(CC(=O)NCc2ccc(C(=N)N)cc2)c1=O` [Example 90]: the IC50 (as a rule, the point on the concentration scale where inhibition reaches its midpoint) is less than 0.1 µM in data set [2], more than 30 µM on Human factor Xa and more than 30 µM on Human thrombin. Further, the “PT (Prothrombin time) 2xPT” value in data set [3] is less than 50.0 µM.
Regarding `CC[C@@H](C)NC(=O)c1cc(N)cc(-c2cnc(NC(C)C)c(=O)n2CC(=O)NCc2ccc(C(=N)N)cc2OC)c1.O=C(O)C(F)(F)F.O=C(O)C(F)(F)F` [Example 182, 3-amino-5-[1-[2-({4-[amino(imino)methyl]-2-methoxybenzyl}amino)-2-oxoethyl]-5-(isopropylamino)-6-oxo-1,6-dihydropyrazin-2-yl]-N-[(1R)-1-methylpropyl]benzamide], the IC50 in data set [2] was less than 0.1 µM; at Human factor Xa it was more than 30 µM; on Human thrombin, less than 30 µM. Besides, the “PT (Prothrombin time) 2xPT” value in data set [3] is less than 50.0 µM.
The matching figures for `CC[C@@H](C)NC(=O)c1cc(N)cc(-c2cnc(NC(C)C)c(=O)n2CC(=O)NCc2c(O)cc(C(=N)N)cc2O)c1` [Example 199]: less than 0.1 µM, more than 30 µM, more than 30 µM and less than 50.0 µM.
The matching figures for `CC(C)Nc1ncc(-c2cc(N)cc(C(=O)N[C@@H](C)c3ccccc3)c2)n(CC(=O)NCc2ccc(C(=N)N)cc2)c1=O` [Example 57]: less than 0.1 µM, more than 30 µM, less than 30 µM and less than 50.0 µM.
As to `CC[C@H](C)NC(=O)c1cc(N)cc(-c2cnc(NC(C)C)c(=O)n2CC(=O)NCc2ccc(C(=N)N)cc2)c1.O=C(O)C(F)(F)F` [Example 127], the IC50 in data set [2] was less than 0.1 µM; on Human factor Xa, more than 30 µM; at Human thrombin, less than 30 µM. For the same molecule, the “PT (Prothrombin time) 2xPT” value in data set [3] is less than 50.0 µM.
For `CC(C)Nc1ncc(-c2cc(N)cc(C(=O)NC(C)c3ccccc3)c2)n(CC(=O)NCc2ccc(C(=N)N)cc2)c1=O` (racemic) [Example 56], the IC50 is less than 0.1 µM in data set [2], more than 30 µM at Human factor Xa and less than 30 µM at Human thrombin. In data set [3], the “PT (Prothrombin time) 2xPT” value is less than 50.0 µM.
The matching figures for `CC(C)Nc1ncc(-c2cc(N)cc(O)c2)n(CC(=O)NCc2ccc(C(=N)N)c(O)c2)c1=O.O=C(O)C(F)(F)F` [Example 181, 2-[6-(3-amino-5-hydroxyphenyl)-3-(isopropylamino)-2-oxopyrazin-1 (2H)-yl]-N-{4-[amino(imino)methyl]-3-hydroxybenzyl}acetamide]: more than 0.1 µM, more than 30 µM, more than 30 µM and more than 50.0 µM.
The matching figures for `CNc1ncc(-c2cc(N)cc(N)c2)n(CC(=O)NCc2ccc(C(=N)N)cc2)c1=O` [Example 35]: less than 0.1 µM, more than 30 µM, more than 30 µM and less than 50.0 µM.
Consider `CCCC(CCC)C(=O)Nc1cc(N)cc(-c2cnc(NC(C)C)c(=O)n2CC(=O)NCc2ccc(C(=N)N)cc2)c1.O=C(O)C(F)(F)F.O=C(O)C(F)(F)F` [Example 136], for which the IC50 was less than 0.1 µM in data set [2], more than 30 µM on Human factor Xa and less than 30 µM on Human thrombin. In addition, in data set [3], the “PT (Prothrombin time) 2xPT” value is less than 50.0 µM.
For `CC(C)Nc1ncc(-c2cc(N)cc(NS(=O)(=O)c3ccc(F)cc3)c2)n(CC(=O)NCc2ccc(C(=N)N)cc2)c1=O` [Example 93], the IC50 was less than 0.1 µM in data set [2], more than 30 µM on Human factor Xa and more than 30 µM at Human thrombin. Also, in data set [3], the “PT (Prothrombin time) 2xPT” value was less than 50.0 µM.
